In patent US20080155704A1, “Methods and Compositions for Determining in vivo Activity of BiP” (King's College London, priority 2006, published 2008):

Tests used:
Assay type in all cases: cell-based, human
T cells = test: Direct effect of BiP on T cells / PBMC: marker expression
Experimental: CCR4 and CCR5 expression by T cells.
Immunofluorescent staining was performed as follows when required. Cells were suspended in immunofluorescent buffer (IF) (PBS/0.1% BSA/0.05% azide) washed and incubated for 10 mins on ice with normal human serum. After washing twice in IF buffer, saturating concentrations of fluorescein isothiocyanate (FITC)-, phycoerythrin (PE) or peridium chlorophyll (Per-CP)-conjugated monoclonal antibodies (mAb) recognizing human CD14, CD86, CD80, HLA-DR, CD11c, CD1a, CD83, CD40 and CD85j, (all from Becton Dickinson/PharMingen, Oxford, UK) were added singly or in combination, as stated in the text, to cells for 20 mins on ice. Cells were then washed twice in IF buffer and analysed. Isotype controls, IgG1 and IgG2a (Becton Dickinson, Oxford, UK) were used in parallel.
Another group of regulatory T cells recently described are characterised by the expression of CD8CD122.

[1] = test system: indoleamine 2,3-dioxygenase (IDO); test: Intracellular indoleamine 2,3-dioxygenase in mature dendritic cells (flow cytometry); settings: mDC(BiP)
Experimental: Purified monocytes (>85% monocytes)(1.5.10^6/flask)(Corning Costar, High Wycombe, UK) were incubated in 5 ml of tissue culture medium (TCM)(RPMI 1640 medium (Sigma, Poole, UK) supplemented with 10% heat-inactivated foetal calf serum (FCS)(Life Technologies, Paisley, UK). iDC were generated using granulocyte macrophage—colony stimulating factor (GM-CSF) (1000 U/ml)(Novartis Research Institute, Vienna, Austria) and IL-4 (500 U/ml) (R&D Systems, Oxford, UK). Monocytes were cultured for 3 or 7 days with cytokines, either alone or in the presence of rhuBiP (20 μg/ml). Mature DC were generated by addition of 500 ng/ml lipopolysaccharide (LPS) for the final 2 days of culture.
Intracellular staining was carried out with fixed cells incubated with 1% paraformaldehyde in IF buffer for 5 minutes at room temperature. The cells were washed twice with IF buffer containing 0.3% saponin for permeabilization. […] Antibodies were added at the pre-determined optimal concentration for 20 mins and then the cells were washed twice with IF buffer and analysed. […] Cells were analysed on a FACScan cytometer using Cellquest software (Becton Dickinson, Oxford, UK). […]
Immunofluorescent staining was performed, as described previously (39), on DC harvested at day 7, T cells after 4 days co-culture with DC. […] Cells were analysed on a FACScan/FACScalibur cytometers using Cellquest software (BD, Oxford, UK).

IL-10 = IL-10 production by dendritic cell cultures (ELISA); settings: for IL-10 production: n=8
Experimental: (§1) Supernatant samples were collected on day 1, 3 and 7 for iDC and from the final cultures of the T cells taken from the iDC/mDC-T cell allogeneic test system and set up with autologous cells to determine if there was any regulatory activity. The samples were aliquoted and frozen at −70° C. until required. Production IL-10 was quantified by ELISA using paired antibodies and recombinant standards (PharMingen, Oxford, UK) according to the recommendations of the manufacturer. In addition some were analysed by cytometric bead assay (BD, Oxford, UK) according to the manufacturers instructions.
To neutralize IL-10 within the cultures anti-IL-10 antibody (ATCC, Rockville, USA) was added at day 0 (5 μg/ml) to GM-CSF and IL-4 treated cultures in the presence and absence of BiP (20 μg/ml). Two specific cell-permeable inhibitors of the MAPK intracellular signalling pathways were used. SB203580 (SB)(10 μM)((Calbiochem, Darmstadt, Germany) inhibits p38 MAPK, and PD98059 (PD) (10 μM)(Calbiochem), an inhibitor of MAPK extracellular signal regulated kinase (ERK), were tested. MO were pre-treated with the inhibitors for 2 h before adding GM-CSF and IL-4 in the presence or absence of BiP.
as §1, with “of the pro-inflammatory cytokine, TNFα, and the anti-inflammatory cytokine, IL-10,” for “IL-10”

Substance: BiP: 78 kD endoplasmic reticulum chaperone protein as disclosed in WO 00/21995; recombinant human protein
- CCR5 expression by T cells (T cells; PBMC incubated with BiP for four days (FIG. 4)): slightly downregulated
- CCR4 expression by T cells (T cells; PBMC incubated with BiP for four days, three experiments (FIG. 4)): significantly raised
- CD8CD122 expression (T cells; T cells after 7 days incubation with BiP, n=3): 75.6%±23.5%
- cells containing intracellular IDO ([1]; mean ±standard deviation, n=9 (Example 10)): 14.1±7.1%
- cells containing intracellular IDO ([1]; n=4 (Example 1)): 17.6±8.6%
- IL-10 production by early DC(BiP) cultures (IL-10; 3d GM-CSF and IL-4 with BiP 20 μg/ml, inhibitors 10 μM, anti-IL-10 added at day 0 (FIG. 13D)): significantly more IL-10
- IL-10 production (IL-10; iDC(BiP), 7d culture): 819.1 ± 688 pg/mL
- IL-10 production (IL-10; mDC(BiP), 7d culture with LPS final 2d): 970.1 ± 684 pg/mL
- IL-10 production by BiP-treated DC (IL-10; versus untreated DC (FIG. 1)): significantly more IL-10
